Data on one compound can be found in US20180296564A1, “METHOD FOR PREVENTING AND/OR TREATING CHRONIC TRAUMATIC ENCEPHALOPATHY - III” (Eustralis Pharmaceuticals Limited (trading as Pressura …, priority 2013, published 2018).

In the test the test system is tau phosphorylation. Description: Tau phosphorylation after concussive injury in the rat (immunohistology). Conditions: rat concussion model; 3 mg/kg intravenously at 30 min after induction of injury; assessed 3 days after the concussive event. In kind it is in vivo. An excerpt:
Note that concussive injury in the rat causes extensive tau phosphorylation (B) by 3 days after the concussive event compared to non-injured animals (A). […] Having established that hyperphosphorylated tau accumulates perivascularly following concussive injury, we used an animal model of concussion to investigate whether concussion causes perivascular release of substance P. We developed a rodent model of concussion to replicate the concussive event (Donkin et al., 2004, 7th International Neurotrauma Symposium, pp 75-78, Medimond Publishers, Bologna, Italy) and subsequently determined whether substance P was released after such an event. There was a clear increase in brain perivascular substance P immunoreactivity after the concussive event (FIG. 2). […] Having shown that mechanical injury causes release of substance P after concussive injury, we then investigated whether Emend® reduces tau hyperphosphorlation after concussive injury. […] Note that concussive injury in the rat causes extensive tau phosphorylation (B) by 3 days after the concussive event compared to non-injured animals (A). […] Thus, administration of Emend® prevents tau hyperphosphorylation and thus prevents the development of CTE.

The structures appear in SMILES notation.

For `C[C@@H](O[C@H]1OCCN(Cc2nc(=O)[nH][nH]2)[C@H]1c1ccc(F)cc1)c1cc(C(F)(F)F)cc(C(F)(F)F)c1` [Emend®, 5-([(2R,3S)-2-((R)-1-[3,5-bis(trifluoromethyl)phenyl]ethoxy)-3-(4-fluorophenyl)morpholino]methyl)-1H-1,2,4-triazol-3(2H)-one], the “effect on tau phosphorylation after concussive injury” value is “almost complete inhibition of tau phosphorylation”.
